Test results taken from patent publication US6215002A, “Pyrrolopyrrolone derivatives as inhibitors of neutrophil elastase” (priority 1996, dated 2001).
Structures can show the parent of a compound that is named as a salt.

Biological target: T1, human neutrophil elastase (Homo sapiens, UniProt P08246)
T1 sequence (P08246 30-267): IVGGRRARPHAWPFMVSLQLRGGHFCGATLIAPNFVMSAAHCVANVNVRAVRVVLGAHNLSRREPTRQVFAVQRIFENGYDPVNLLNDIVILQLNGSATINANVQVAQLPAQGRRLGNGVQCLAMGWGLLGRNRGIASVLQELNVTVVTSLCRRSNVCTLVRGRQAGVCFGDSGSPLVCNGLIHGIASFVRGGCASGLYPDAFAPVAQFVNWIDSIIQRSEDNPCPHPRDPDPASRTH
Test: In vitro assay of human neutrophil elastase (HNE)
Type: biochemical
Conditions: 118 nM purified human neutrophil elastase, pH 8.6, 15 min incubation at 30° C., MeO-succinyl-alanyl-alanyl-prolyl-valyl-p-nitroanilide substrate; read-out: HNE IC50
Outline: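 Residual activity was taken as the 10 min rate of absorbance rise at 405 nm after adding 0.6 mM MeO-succinyl-AAPV-p-nitroanilide. Curve fitting of activity against concentration gave IC50.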

Compound	IC50 [nM]
CCC[C@H]1C(=O)N(S(C)(=O)=O)[C@H]2CCN(C(=O)c3ccco3)[C@H]12 (relative stereo) [Example 231, rel-(3R,3aR,6aS)-4-(Furan-2-carbonyl)-1-methanesulfonyl-3-propyl-hexahydro-pyrrolo[3,2-b]pyrrol-2-one]	35
CCC[C@H]1C(=O)N(S(C)(=O)=O)[C@H]2CCN(C(=O)CCCCCN3CCCN(C)CC3)[C@H]12 (relative stereo) [Example 80, rel-(3R,3aR,6aS)-1-Methanesulfonyl-4-[6-(4-methyl-[1,4]diazepin-1-yl)-hexanoyl]-3-propyl-hexahydro-pyrrolo[3,2-b]pyrrol-2-one hydrochloride]	61
CCC[C@H]1C(=O)N(S(C)(=O)=O)[C@H]2CCN(C(=O)CCCN3CCC3)[C@H]12 (relative stereo) [Example 84, rel-(3R,3aR,6aS)-4-(4-Azetidin-1-yl-butyryl)-1-methanesulfonyl-3-propyl-hexahydro-pyrrolo[3,2-b]pyrrol-2-one DL-tartrate]	134
CCC[C@H]1C(=O)N(S(C)(=O)=O)[C@H]2CCN(C(=O)CCCCCCCCCN(C)C)[C@H]12 (relative stereo) [Example 67, rel-(3R,3aR,6aS)-4-(10-Dimethylamino-decanoyl)-1-methanesulfonyl-3-propyl-hexahydro-pyrrolo[3,2-b]pyrrol-2-one DL-tartrate]	43
CCC[C@H]1C(=O)N(S(C)(=O)=O)[C@H]2CCN(S(=O)(=O)c3ccc([N+](=O)[O-])cc3)[C@H]12 (relative stereo) [Example 211, rel-(3R,3aR,6aS)-1-Methanesulfonyl-4-(4-nitro-benzenesulfonyl)-3-propyl-hexahydro-pyrrolo[3,2-b]pyrrol-2-one]	140
CCC[C@H]1C(=O)N(S(C)(=O)=O)[C@H]2CCN(S(=O)(=O)c3ccc(C(=O)N(C)C)cc3)[C@H]12 (relative stereo) [Example 126, rel-4-(4-Methanesulfonyl-5-oxo-6R-propyl-hexahydro-(3aS,6aR)-pyrrolo[3,2-b]pyrrole-1-sulfonyl)-N,N-dimethyl-benzamide]	10
CCC[C@H]1C(=O)N(S(C)(=O)=O)[C@H]2CCN(S(=O)(=O)c3ccc(C(=O)NC)cc3)[C@H]12 (relative stereo) [Example 124, rel-(3aS,6R,6aR)-4-(4-Methanesulfonyl-5-oxo-6-hexahydro-pyrrolo[3,2-b]pyrrole-1-sulfonyl)-N-methyl-benzamide]	8
CC(C)[C@H]1C(=O)N(S(C)(=O)=O)[C@H]2CCN(S(=O)(=O)c3ccc(N)cc3)[C@H]12 (relative stereo) [Example 237, rel-(3R,3aR,6aS)-4-(4-Amino-benzenesulfonyl)-3-isopropyl-1-methanesulfonyl-hexahydro-pyrrolo[3,2-b]pyrrol-2-one]	29
CCC[C@H]1C(=O)N(S(C)(=O)=O)[C@H]2CCN(C(=O)CN3CCCC3)[C@H]12 (relative stereo) [Example 108, hydrochloride]	481
CCC[C@H]1C(=O)N(S(C)(=O)=O)[C@H]2CCN(C(=O)/C=C/c3ccc(NC(C)=O)cc3)[C@H]12 (relative stereo) [Example 134, rel-N-{4-[3-(4-Methanesulfonyl-5-oxo-6R-propyl-hexahydro-(3aS,6aR)-pyrrolo[3,2-b]pyrrol-1-yl)-3-oxo-(E)-propenyl]-phenyl}acetamide]	23
CCC[C@H]1C(=O)N(S(=O)(=O)c2ccc([N+](=O)[O-])cc2)[C@H]2CCN(C(=O)CCCCCN3CCCCC3)[C@H]12 (relative stereo) [Example 203, rel-(3R,3aR,6aS)-1-(4-Nitro-benzenesulfonyl)-4-(6-piperidin-1-yl-hexanoyl)-3-propyl-hexahydro-pyrrolo[3,2-b]pyrrol-2-one DL-tartrate]	38
CCC[C@H]1C(=O)N(S(=O)(=O)/C=C/c2ccccc2)[C@H]2CCN(S(=O)(=O)Cc3ccccc3)[C@H]12 (relative stereo) [Example 33, rel-(3R,3aR,6aS)-1-(2-Phenyl-(E)-ethenesulfonyl)-4-phenylmethanesulfonyl-3-propyl-hexahydro-pyrrolo[3,2-b]pyrrol-2-one]	458
CCC[C@H]1C(=O)N(S(=O)(=O)c2cccc3ccccc23)[C@H]2CCN(C(=O)C3CCNCC3)[C@H]12 (relative stereo) [Example 17, trifluoroacetate]	342
CCC[C@H]1C(=O)N(S(C)(=O)=O)[C@H]2CCN(C(=O)CCCCCN3CCN(C)CC3)[C@H]12 (relative stereo) [Example 79, rel-(3R,3aR,6aS)-1-Methanesulfonyl-4-[6-(4-methyl-piperazin-1-yl)-hexanoyl]-3-propyl-hexahydro-pyrrolo[3,2-b]pyrrol-2-one dihydrochloride]	50
CCC[C@H]1C(=O)N(S(C)(=O)=O)[C@H]2CCN(C(=O)c3ccc(NC(C)=O)nc3)[C@H]12 (relative stereo) [Example 241, rel-N-[5-(4-Methanesulfonyl-5-oxo-6R-propyl-hexahydro(3aS,6aR)-pyrrolo[3,2-b]pyrrole-1-carbonyl)-pyridin-2-yl]-acetamide]	22
CCC[C@H]1C(=O)N(S(C)(=O)=O)[C@H]2CCN(C(=O)CCN3CCCCC3)[C@H]12 [Example 116, (3R,3aR,6aS)-1-Methanesulfonyl-4-(3-piperidin-1-yl-propionyl)-3-propyl-hexahydro-pyrrolo[3,2-b]pyrrol-2-one hydrochloride]	417
CCC[C@H]1C(=O)N(S(C)(=O)=O)[C@H]2CCN(C(=O)CCCCCN(C)C)[C@H]12 (relative stereo) [Example 77, rel-(3R,3aR,6aS)-4-(6-Dimethylamino-hexanoyl)-1-methanesulfonyl-3-propyl-hexahydro-pyrrolo[3,2-b]pyrrol-2-one DL-tartrate]	134
CCC[C@H]1C(=O)N(S(C)(=O)=O)[C@H]2CCN(S(=O)(=O)c3ccc(CN(C)C)cc3)[C@H]12 (relative stereo) [Example 196, rel-(3R,3aR,6aS)-4-(4-Dimethylaminomethyl-benzenesulfonyl)-1-methanesulfonyl-3-propyl-hexahydro-pyrrolo[3,2-b]pyrrol-2-one hydrochloride]	34
CCC[C@H]1C(=O)N(S(C)(=O)=O)[C@H]2CCN(C(=O)CCN3CCN(C)CC3)[C@H]12 (relative stereo) [Example 94, rel-(3R,3aR,6aS)-1-Methanesulfonyl-4-[3-(4-methyl-piperazin-1-yl)-propionyl]-3-propyl-hexahydro-pyrrolo[3,2-b]pyrrol-2-one dihydrochloride]	81
CCC[C@H]1C(=O)N(S(=O)(=O)c2ccc3ccccc3c2)[C@H]2CCN(S(=O)(=O)Cc3ccccc3)[C@H]12 (relative stereo) [Example 34, rel-(3aR,6R,6aS)-1-(Naphthalene-2-sulfonyl)-4-phenylmethanesulfonyl-3-propyl-hexahydro-pyrrolo[3,2-b]pyrrol-2-one]	52
CCC[C@H]1C(=O)N(S(=O)(=O)c2cccc3ccccc23)[C@H]2CCN(S(=O)(=O)CCCN3CCOCC3)[C@H]12 (relative stereo) [Example 36, rel-(3R,3aR,6aS)-4-(3-Morpholin-4-yl-propane-1-sulfonyl)-1-(naphthalene-1-sulfonyl)-3-propyl-hexahydro-pyrrolo[3,2-b]pyrrol-2-one]	125
CCC[C@H]1C(=O)N(S(C)(=O)=O)[C@H]2CCN(C(=O)/C=C/C(=O)OCC)[C@H]12 (relative stereo) [Example 128, rel-(3R,3aR,6aS)-4-(4-Methanesulfonyl-5-oxo-6-propyl-hexahydro-pyrrolo[3,2-b]pyrrole-1-yl)-4-oxo-but-2E-enoic acid ethyl ester]	30
CCC[C@H]1C(=O)N(S(C)(=O)=O)[C@H]2CCN(S(=O)(=O)c3ccc(OC)cc3)[C@H]12 (relative stereo) [Example 220, rel-(3R,3aR,6aS)-1-Methanesulfonyl-4-(4-methoxy-benzenesulfonyl)-3-propyl hexahydro-pyrrolo[3,2-b]pyrrol-2-one]	12
CCC[C@H]1C(=O)N(S(C)(=O)=O)[C@H]2CCN(S(=O)(=O)c3ccc(Cl)cc3)[C@H]12 (relative stereo) [Example 215, rel-(3R,3aR,6aS)-4-(4-Chloro-benzenesulfonyl)-1-methanesulfonyl-3-propyl-hexahydro-pyrrolo[3,2-b]pyrrol-2-one]	28
CCC[C@H]1C(=O)N(S(C)(=O)=O)[C@H]2CCN(C(=O)c3ccc[nH]3)[C@H]12 (relative stereo) [Example 242, rel-(3R,3aR,6aS)-1-Methanesulfonyl-3-propyl-4-(1H-pyrrole-2-carbonyl)-hexahydro-pyrrolo[3,2-b]pyrrol-2-one]	22
rel-(3aS,6R,6aR)-6-Allyl-4-benzylsulfamoyl-5-oxo-hexahydro-pyrrolo[3,2-b]pyrrole-1-carboxylic acid benzyl ester [Example 19]	5230
CC[C@H]1C(=O)N(S(=O)(=O)c2ccc3ccccc3c2)[C@H]2CCN(C(=O)CCN3CCCCC3)[C@H]12 (relative stereo) [Example 5, rel-(3R,3aR,6aS)-3-Ethyl-1-(naphthalene-2-sulfonyl)-4-(3-piperidin-1-yl-propionyl)-hexahydro-pyrrolo[3,2-b]pyrrol-2-one hydrochloride]	205
CCC[C@H]1C(=O)N(S(=O)(=O)c2cccnc2)[C@H]2CCN(C(=O)CCN3CCCCC3)[C@H]12 (relative stereo) [Example 172, rel-(3R,3aR,6aS)-4-(3-Piperidin-1-yl-propionyl)-3-propyl-1-(pyridine-3-sulfonyl)-hexahydro-pyrrolo[3,2-b]pyrrol-2-one dihydrochloride]	69
